Consider one compound from paper PMC3175485 (2011).

The target in the test is PDE4D3 (Homo sapiens, UniProt Q08499). Nature of the test: biochemical.

The IC50 is the concentration that inhibits the measured activity by half. A higher IC50 goes with weaker potency.

Chain of PDE4D3 (Q08499 1-673 isoform Q08499-2): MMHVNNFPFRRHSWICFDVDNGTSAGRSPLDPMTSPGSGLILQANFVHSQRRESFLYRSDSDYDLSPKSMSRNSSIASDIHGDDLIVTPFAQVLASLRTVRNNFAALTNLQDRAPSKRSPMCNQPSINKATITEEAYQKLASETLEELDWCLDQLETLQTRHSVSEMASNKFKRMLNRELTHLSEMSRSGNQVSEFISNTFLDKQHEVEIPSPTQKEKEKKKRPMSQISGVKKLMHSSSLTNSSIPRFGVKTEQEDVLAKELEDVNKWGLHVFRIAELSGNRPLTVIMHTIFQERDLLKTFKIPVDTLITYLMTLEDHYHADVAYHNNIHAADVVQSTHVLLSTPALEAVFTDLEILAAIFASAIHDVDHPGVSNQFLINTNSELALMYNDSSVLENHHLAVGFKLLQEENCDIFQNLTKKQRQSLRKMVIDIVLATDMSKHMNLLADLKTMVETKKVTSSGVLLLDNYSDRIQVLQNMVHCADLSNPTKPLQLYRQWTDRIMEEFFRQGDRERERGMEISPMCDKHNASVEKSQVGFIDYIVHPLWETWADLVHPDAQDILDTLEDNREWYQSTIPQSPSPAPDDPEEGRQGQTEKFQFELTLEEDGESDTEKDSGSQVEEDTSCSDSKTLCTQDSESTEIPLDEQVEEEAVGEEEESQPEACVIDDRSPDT

The compound `COc1ccc(-c2cc(C(F)F)nn2-c2ccc(S(N)(=O)=O)cc2)cc1F` [deracoxib] yielded an IC50 of 3.6 ± 0.5 µM.
